These results are taken from EP4711365A1 (Shanghai Hansoh Biomedical Co., Ltd., priority 2023, dated 2024).

As usually defined, the pIC50 is the IC50 on a negative log10 scale, so that one unit is a factor of ten. Lower therefore signals a large IC50. The AUC(0-t) is exposure summed from dosing to a finite time, without extrapolation to infinity. A higher AUC(0-t) goes with more exposure. As usually defined, the Cmax is the maximum level reached in the sampled fluid or tissue. For orientation: Tmax means the time from dosing to the highest level. Usually half-life stands for the time in which the quantity being followed falls by half.

In data set [1] the test system is Groα secretion by HT-29 cells. Description: Inhibition of Groα secretion by HT-29 cells stimulated with IL-17A (ELISA). In kind it is cell-based, Human. The following applies: Homo sapiens, IL-17A 30 ng/ml, Groα in supernatant. As to the method:
Test example 2 Assay for inhibitory effect of compounds of the present invention against Groα secretion by HT-29 cells
Experimental objective: to measure the inhibitory effect of the compounds against Groα secretion by HT-29 cells, thereby evaluating the inhibition of the compounds on IL-17A pathway.
Experimental method: A cell suspension at 50,000 cells/ml was prepared, and 200 µl of the cell suspension was added to each well of a 96-well plate, i.e., 10,000 cells/well. The plate was cultured overnight. In the 96-well V-bottom plate, 5 mM compound solution was serially diluted 3-fold using DMSO, and the compound from each well was diluted 100-fold using a complete culture medium. IL-17A protein (R&D, #BT7955-025/CF) with a stock concentration of 100 µg/ml was diluted 333.33-fold using a complete culture medium. The compound and IL-17A were mixed at a volume ratio of 1:1 and incubated at 37°C for 30 minutes. 50 µl of a mixture of the compound and IL-17A was added to cell wells, and the final concentration of IL-17A protein was 30 ng/ml.
The mixture was incubated in a 37°C, 5% CO2 cell culture incubator for 48 hours. The concentration of Groα in the supernatant was determined by ELISA method using Human Groα Valukin Elisa kit (Biotechne, # VAL139), and the absorbance intensity at 450 nm was measured using a microplate reader (PE, EnVision2105). Data were analysed using GraphPad Prism 8.3.0.
Experimental data processing method: Data were analysed using GraphPad Prism 8.3.0.
Inhibition rate% = [(average value of positive control wells - value of sample wells)/(average value of positive control wells - average value of negative control wells)] × 100%, where the sample wells are wells containing cells plus compounds at different concentration gradients, the positive control wells are wells containing cells plus IL-17A, and the negative control wells are wells containing culture medium plus IL-17A.
Curve fitting: The IC50 value was obtained by curve fitting based on the inhibition rate (%) at each concentration using the log(inhibitor) vs. responseVariable slope (four parameters) in GraphPad Prism 6.0, and the calculation equation was Y = Bottom + (Top-Bottom)/(1+10^((LogIC50-X)*HillSlope)).
For orientation: An ELISA detects its analyte on a solid surface through an enzyme-linked reagent.

Data set [2] is described as follows: Pharmacokinetic assay in Wistar rats, oral. The following applies: rat, 30 mg/kg.
Procedure: Experimental objective: to study the pharmacokinetic behaviours of the compounds of the present invention in the body (plasma) of Wistar rats as test animals after oral administration at a dose of 30 mg/kg. • 2. Experimental scheme • 2.1 Test drugs: the examples of the present invention, prepared in house. • 2.2 Test animals: Wistar rats (female, 3 rats per group), from Beijing Vital River Laboratory Animal Technology Co., Ltd., with the animal production license no.
Solutol HS15 was melted in a water bath at 50-60°C, and then 50 mL of the melted Solutol HS15 was added to 450 mL of ultrapure water. The mixture was stirred and sonicated to obtain 500 mL of 10% Solutol HS15 solution. The compound was weighed, and according to the total administration volume, 30% PEG solution was first added. The mixture was shaken uniformly and sonicated until a clear solution was obtained. Subsequently, 70% (10% Solutol) in water was added, resulting in a colourless and clear solution with a concentration of 3.0 mg/mL.
2.4 Administration scheme: After overnight fasting, 3 female Wistar rats per group were administered orally (PO) at a dose of 30 mg/kg with an administration volume of 10 mL/kg.
• 1) To 50 uL of plasma sample was added 250 uL of acetonitrile for precipitation, and the mixture was mixed and then centrifuged at 4°C at 4000 rpm for 20 minutes. • 2) The treated supernatant solution was taken and subjected to LC/MS/MS to analyse the concentration of the test compounds. LC/MS/MS analysis instrument: AB Sciex API-4000 Qtrap-Shimadzu Controller-CBM20A.
• Chromatographic column: Waters Xbridge C18 3.5 um 2.1*50 mm • Mobile phase: solution A: 0.1% formic acid in water, and solution B: 0.1% formic acid in acetonitrile • Flow rate: 0.6 mL/min • Elution time: 0-3.5 minutes, with eluents as follows:

pIC50: −log10 of the molar value.

`[2H]C([2H])([2H])C([2H])([2H])n1nccc1C(=O)NC(C(=O)Nc1ncc(C(COC)n2cc(Cl)ccc2=O)s1)C1CCC(C)CC1` (centres unmarked) [Example 586] gave a pIC50 in data set [1] (HT-29, 48 h) of 8.09. Further, in data set [2] (in vivo), the AUC(0-t) is 15300 ng·h/mL, the peak level (Cmax) was 1750 ng/mL, the Tmax is 2 h and the half-life was 4.3 h.
`[2H]C([2H])([2H])C([2H])([2H])n1nccc1C(=O)NC(C(=O)Nc1ncc(C(COC)N2CC(F)(F)CCC2=O)s1)C1CCC(C)CC1` [Example 613, N-((S)-2-((5-((R)-1-(5,5-difluoro-2-carbonylpiperidin-1-yl)-2-methoxyethyl)thiazol-2-yl)amino)-1-((1r,4S)-4-methylcyclohexyl)-2-carbonylethyl)-1-(ethyl-d5)-1H-pyrazole-5-carboxamide] had a pIC50 in data set [1] (48 hours) of 8.25. In data set [2] (plasma), the AUC(0-t) came to 21000 ng·h/mL, the Cmax turned out to be 3300 ng/mL, the Tmax amounted to 2 h and the half-life is 2.6 h.
In data set [1] (48 hours), `[2H]C([2H])([2H])C([2H])([2H])n1nccc1C(=O)N[C@H](C(=O)Nc1ncc([C@@H](CN2CCOCC2)N2CC(F)(F)CCC2=O)s1)[C@H]1CC[C@H](C)CC1` [Example 624, N-((S)-2-((5-((R)-1-(5,5-difluoro-2-oxopiperidin-1-yl)-2-morpholinoethyl)thiazol-2-yl)amino)-1-((1r,4S)-4-methylcyclohexyl)-2-oxoethyl)-1-(ethyl-d5)-1H-pyrazole-5-carboxamide] gave a pIC50 of 8.37. Also, in data set [2] (plasma), the AUC(0-t) was 11000 ng·h/mL, the highest level (Cmax) was 3400 ng/mL, the Tmax was 1 h and the half-life is 1 h.
Consider `[2H]C([2H])([2H])C([2H])([2H])n1nccc1C(=O)N[C@H](C(=O)Nc1ncc([C@@H](CN2CCO[C@H](C)C2)N2CC(F)(F)CCC2=O)s1)[C@H]1CC[C@H](C)CC1` [Example 627, N-((S)-2-((5-((R)-1-(5,5-difluoro-2-oxopiperidin-1-yl)-2-((R)-2-methylmorpholino)ethyl)thiazol-2-yl)amino)-1-((1r,4S)-4-methylcyclohexyl)-2-oxoethyl)-1-(ethyl-d5)-1H-pyrazole-5-carboxamide], for which the pIC50 in data set [1] (48 hours) was 8.20. In data set [2] (plasma), the AUC(0-t) stood at 22100 ng·h/mL, the highest level (Cmax) was 2530 ng/mL, the Tmax worked out at 4 h and the half-life is 3.2 h.
Turning to `[2H]C([2H])([2H])C([2H])([2H])n1nccc1C(=O)N[C@H](C(=O)Nc1ncc([C@@H](CN2CCO[C@@H](C)C2)N2CC(F)(F)CCC2=O)s1)[C@H]1CC[C@H](C)CC1` [Example 628], in data set [1] (48 hours), the negative-log IC50 (pIC50) was 8.17. In data set [2] (in vivo), the AUC(0-t) came to 20900 ng·h/mL, the concentration peaked (Cmax) at 2270 ng/mL, the Tmax worked out at 4 h and the half-life was 3.3 h.
`CCn1nccc1C(=O)N[C@H](C(=O)Nc1ncc([C@@H](CN2CCC(OC)CC2)N2CC(F)(F)CCC2=O)s1)[C@H]1CC[C@H](C)CC1` [Example 646] gave a pIC50 in data set [1] (HT-29, 48 h) of 8.10. Moreover, in data set [2] (in vivo), the AUC(0-t) was 19800 ng·h/mL, the Cmax turned out to be 3830 ng/mL, the Tmax is 2 h and the half-life was 2.4 h.
For `C[C@H]1CC[C@H]([C@H](NC(=O)C2(F)CC2)C(=O)Nc2ncc([C@@H](CN3CCC(C(F)(F)F)CC3)N3CC(F)(F)CNC3=O)s2)CC1` [Example 774, N-((S)-2-((5-((R)-1-(5,5-difluoro-2-oxotetrahydropyrimidin-1(2H)-yl)-2-(4-(trifluoromethyl)piperidin-1-yl)ethyl)thiazol-2-yl)amino)-1-((1r,4S)-4-methylcyclohexyl)-2-oxoethyl)-1-fluorocyclopropane-1-carboxamide] the same measures were 8.30, 24400 ng·h/mL, 2310 ng/mL, 4 h and 4.5 h.
Turning to `[2H]C([2H])([2H])C([2H])([2H])n1nccc1C(=O)N[C@H](C(=O)Nc1ncc([C@@H](CN2CCOC[C@@H]2C)N2CC(F)(F)CCC2=O)s1)[C@H]1CC[C@H](C)CC1` [Example 816], the pIC50 in data set [1] (HT-29, 48 h) was 8.34. Also, in data set [2] (in vivo), the AUC(0-t) is 28400 ng·h/mL, the Cmax is 2540 ng/mL, the Tmax was found to be 4 h and the half-life is 3.8 h.
`[2H]C([2H])([2H])C([2H])([2H])n1nccc1C(=O)NC(C(=O)Nc1ncc(C(CN2CCOCC2C)N2CC(F)(F)CCC2=O)s1)C1CCC(C)CC1` (centres unmarked) [Example 818]: the pIC50 in data set [1] (HT-29, 48 h) is 8.59. Moreover, in data set [2] (in vivo), the AUC(0-t) amounted to 15500 ng·h/mL, the Cmax is 2650 ng/mL, the Tmax stood at 2 h and the half-life is 3.1 h.
`[2H]C([2H])([2H])C([2H])([2H])n1nccc1C(=O)N[C@H](C(=O)Nc1ncc([C@@H](CN2C[C@@H](C)O[C@@H](C)C2)N2CC(F)(F)CCC2=O)s1)[C@H]1CC[C@H](C)CC1` [Example 849, N-((S)-2-((5-((R)-1-(5,5-difluoro-2-oxopiperidin-1-yl)-2-((2R,6S)-2,6-dimethylmorpholino)ethyl)thiazol-2-yl)amino)-1-((1r,4S)-4-methylcyclohexyl)-2-oxoethyl)-1-(ethyl-d5)-1H-pyrazole-5-carboxamide]: the pIC50 in data set [1] (48 hours) is 8.40. Besides, in data set [2] (plasma), the AUC(0-t) turned out to be 15500 ng·h/mL, the Cmax stood at 2480 ng/mL, the time of peak concentration (Tmax) was 2 h and the half-life was 2.8 h.
The matching figures for `[2H]C([2H])([2H])C([2H])([2H])n1nccc1C(=O)N[C@H](C(=O)Nc1ncc([C@@H](CN2C[C@H](C)O[C@@H](C)C2)N2CC(F)(F)CCC2=O)s1)[C@H]1CC[C@H](C)CC1` [Example 854, N-((S)-2-((5-((R)-1-(5,5-difluoro-2-oxopiperidin-1-yl)-2-((2S,6S)-2,6-dimethylmorpholino)ethyl)thiazol-2-yl)amino)-1-((1r,4S)-4-methylcyclohexyl)-2-oxoethyl)-1-(ethyl-d5)-1H-pyrazole-5-carboxamide]: 8.05, 14900 ng·h/mL, 2170 ng/mL, 1 h and 3 h.
In turn, `[2H]C([2H])([2H])C([2H])([2H])n1nccc1C(=O)N[C@H](C(=O)Nc1ncc([C@@H](CN2C[C@@H](C)O[C@H](C)C2)N2CC(F)(F)CCC2=O)s1)[C@H]1CC[C@H](C)CC1` [Example 857, N-((S)-2-((5-((R)-1-(5,5-difluoro-2-oxopiperidin-1-yl)-2-((2R,6R)-2,6-dimethylmorpholino)ethyl)thiazol-2-yl)amino)-1-((1r,4S)-4-methylcyclohexyl)-2-oxoethyl)-1-(ethyl-d5)-1H-pyrazole-5-carboxamide] showed a negative logarithm of the IC50 (pIC50) in data set [1] (48 hours) of 8.62. Also, in data set [2] (plasma), the AUC(0-t) is 15900 ng·h/mL, the Cmax stood at 2290 ng/mL, the Tmax came to 2 h and the half-life was 3.5 h.
Regarding `[2H]C([2H])([2H])C([2H])([2H])n1nccc1C(=O)NC(C(=O)Nc1ncc(C(CN2CC(C)OCC2C)N2CC(F)(F)CCC2=O)s1)C1CCC(C)CC1` [Example 864, N-((S)-2-((5-((R)-1-(5,5-difluoro-2-oxopiperidin-1-yl)-2-((2R,5S)-2,5-dimethylmorpholino)ethyl)thiazol-2-yl)amino)-1-((1r,4S)-4-methylcyclohexyl)-2-oxoethyl)-1-(ethyl-d5)-1H-pyrazole-5-carboxamide], the pIC50 in data set [1] (HT-29, 48 h) was 8.52. Also, in data set [2] (in vivo), the AUC(0-t) was found to be 15700 ng·h/mL, the concentration peaked (Cmax) at 1600 ng/mL, the Tmax was 4 h and the half-life is 3.7 h.
For `[2H]C([2H])([2H])C([2H])([2H])n1nccc1C(=O)N[C@H](C(=O)Nc1ncc([C@@H](CN2CCC(CF)CC2)N2CC(F)(F)CCC2=O)s1)[C@H]1CC[C@H](C)CC1` [Example 928], in data set [1] (HT-29, 48 h), the pIC50 is 8.40. In addition, in data set [2] (in vivo), the AUC(0-t) worked out at 18900 ng·h/mL, the highest level (Cmax) was 2160 ng/mL, the Tmax turned out to be 4 h and the half-life was 4.5 h.
Compound `[2H]C([2H])([2H])C([2H])([2H])n1nccc1C(=O)N[C@H](C(=O)Nc1ncc([C@@H](CN2CCC(C(F)F)CC2)N2CC(F)(F)CCC2=O)s1)[C@H]1CC[C@H](C)CC1` [Example 938] gave a pIC50 in data set [1] (HT-29, 48 h) of 8.36. Besides, in data set [2] (in vivo), the AUC(0-t) was 12500 ng·h/mL, the Cmax is 1240 ng/mL, the Tmax was determined as 4 h and the half-life is 6 h.
Take `[2H]C([2H])([2H])C([2H])([2H])n1nccc1C(=O)N[C@H](C(=O)Nc1ncc([C@@H](CN2CCC3(CCOC3)CC2)N2CC(F)(F)CCC2=O)s1)[C@H]1CC[C@H](C)CC1` [Example 1034]: in data set [1] (HT-29, 48 h), the pIC50 was 8.22.
As to `CCn1nccc1C(=O)N[C@H](C(=O)Nc1ncc([C@@H](CN2CCC(COC)CC2)N2CC(F)(F)CCC2=O)s1)[C@H]1CC[C@H](C)CC1` [Example 1036], in data set [1] (HT-29, 48 h), the pIC50 was 8.22.
